Among the data in PubChem BioAssay AID1745844 (Carcinogenic Potency Database (CPDB), 2022) are carcinogen call and TD50 values, retold here.

The test system of this data set is rodent lifetime carcinogenesis bioassay, tumor incidence TD50. The data set is described as follows: chronic cancer bioassays in animals – CPDB, compiled studies (AID 1745844). Particulars: mouse.

Active and inactive are the calls of the source. No rule for the calls is given here.

Broadly, the TD50 is the dose at which the toxic effect under study appears in half of the subjects. For `C=C1C[C@]23C[C@@]1(O)CC[C@H]2[C@@]12C=C[C@H](O)[C@@](C)(C(=O)O1)[C@H]2[C@@H]3C(=O)O`, the carcinogen call is “negative (inactive)” (strain B6AKF1, females, oral dosing, site: any site (literature study), lesion: several types, types named in the paper, dosed 76 weeks, study length 76 weeks); “negative (inactive)” (strain B6AKF1, females, oral dosing, site: liver, lesion: hepatoma, dosed 76 weeks, study length 76 weeks); “negative (inactive)” (strain B6AKF1, females, oral dosing, site: lung, lesion: adenoma, dosed 76 weeks, study length 76 weeks); “negative (inactive)” (strain B6C3F1, females, oral dosing, site: liver, lesion: hepatoma, dosed 76 weeks, study length 76 weeks); “negative (inactive)” (strain B6C3F1, females, oral dosing, site: lung, lesion: several types, types named in the paper, dosed 76 weeks, study length 76 weeks). For the same molecule, the TD50 reads like this: (strain B6AKF1, males, oral dosing, site: any site (literature study), lesion: several types, types named in the paper, dosed 76 weeks, study length 76 weeks) 151 mg/kg/day (inactive); (strain B6AKF1, males, oral dosing, site: liver, lesion: hepatoma, dosed 76 weeks, study length 76 weeks) 316 mg/kg/day (inactive); (strain B6AKF1, males, oral dosing, site: lung, lesion: several types, types named in the paper, dosed 76 weeks, study length 76 weeks) 460 mg/kg/day (inactive); (strain B6C3F1, females, oral dosing, site: any site (literature study), lesion: several types, types named in the paper, dosed 76 weeks, study length 76 weeks) 1150 mg/kg/day (inactive); (strain B6C3F1, males, oral dosing, site: any site (literature study), lesion: several types, types named in the paper, dosed 76 weeks, study length 76 weeks) 214 mg/kg/day (inactive); (strain B6C3F1, males, oral dosing, site: liver, lesion: hepatoma, dosed 76 weeks, study length 76 weeks) 460 mg/kg/day (inactive). Moreover, the TD50 (strain B6C3F1, males, oral dosing, site: lung, lesion: adenoma, dosed 76 weeks, study length 76 weeks) was 952 mg/kg/day (inactive).
On to `C#C[C@]1(O)CC[C@H]2[C@@H]3CCC4=C(CCC(=O)C4)[C@H]3CC[C@@]21C`, for which the TD50 (strain (C3H x RIII)F1 (MTV+), females, in feed, site: mammary tissue, wider than the gland, lesion: one or several types, types not named, dosed 104 weeks, study length 104 weeks) came out at 2.13 mg/kg/day and the TD50 (strain CFLP, females, in feed, site: liver, lesion: hepatocellular tumor, dosed 78 weeks, study length 78 weeks) was 49.1 mg/kg/day (inactive). Moreover, the carcinogen call by setting is: (strain CFLP, males, in feed, site: liver, lesion: hepatocellular tumor, dosed 78 weeks, study length 78 weeks) “negative (inactive)”; (strain Swiss Webster, females, by gavage, site: liver, lesion: hepatocellular tumor, dosed 65 weeks, study length 80 weeks) “negative (inactive)”.
For the molecule `O=C(O)C1C2C=CC(C2)C1(C(=O)O)[N+](=O)[O-]` (stereo not drawn), the TD50 (strain B6C3F1, females, in drinking water, site: any site (literature study), lesion: several types, types named in the paper, dosed 104 weeks, study length 104 weeks) was found to be 169 mg/kg/day; the TD50 (strain B6C3F1, females, in drinking water, site: liver, lesion: hemangioma, dosed 104 weeks, study length 104 weeks) worked out at 1240 mg/kg/day; the TD50 (strain B6C3F1, females, in drinking water, site: liver, lesion: hyperplastic nodule, dosed 104 weeks, study length 104 weeks) stood at 3190 mg/kg/day; the TD50 (strain B6C3F1, females, in drinking water, site: lung, lesion: papillary tumor, dosed 104 weeks, study length 104 weeks) stood at 5650 mg/kg/day; the TD50 (strain B6C3F1, males, in drinking water, site: any site (literature study), lesion: several types, types named in the paper, dosed 104 weeks, study length 104 weeks) came out at 153 mg/kg/day; the TD50 (strain B6C3F1, males, in drinking water, site: liver, lesion: hepatoma, dosed 104 weeks, study length 104 weeks) stood at 2640 mg/kg/day. The molecule further showed a TD50 (strain B6C3F1, males, in drinking water, site: lung, lesion: papillary tumor, dosed 104 weeks, study length 104 weeks) of 348 mg/kg/day.
